Test results: PMC4014698 (Pharmaceuticals, 2014)
≈ marks a conversion by molar mass, not a printed value. Non-standard residues stand in square brackets, D forms with d. Residues, ends and D or L forms follow the SMILES beside them.

What was measured:
human erythrocytes [1] = test: Hemolytic activity (HC50); format: cell-based; settings: for Hemolytic activity HC50: concentration giving 50% hemolysis after 18 h at 37 °C, 1% human erythrocytes in PBS pH 7.4, hemoglobin release at 570 nm, 100% control water (Figure 7)
Procedure: Hemoglobin release was determined spectrophotometrically at 570 nm.
From these plots, the HC50 values, the peptide concentration that produces 50% hemolysis of human red blood cells after 18 hours in the standard microtiter dilution method was determined.

human erythrocytes [2] = test: Hemolytic activity (HC50); format: cell-based; settings: 1 hour incubation at 37 °C; human red blood cells; Figure 8, 100% control 0.1% Triton-X 100
P. aeruginosa strain PAK = settings: Mueller-Hinton medium, 37 °C, 24 h, 5 × 10^5 CFU/mL; three sets of determinations
Excerpt: (§1) P. aeruginosa strains used are as follows: strain PAO1 was isolated from a human wound in 1955 in Australia; strain WR5 was isolated from a burn patient at Walter Reed Army Hospital, Washington, DC, USA, in 1976 and is a natural toxA^− mutant, but is virulent in experimental mouse models; strain PAK was originally isolated at Memorial University, St. John’s, Newfoundland, Canada, and is widely used in the analysis of pili; strain PA14 was originally isolated as a clinical isolate in 1995 at the Massachusetts General Hospital, Boston, MA, USA and is virulent in a variety of plant and animal models of infection; strain M2 was originally isolated in 1975 from the gastrointestinal tract of a healthy CF1 mouse, University of Cincinnati College of Medicine, and Shriners Burns Institute, Cincinnati, OH, USA and is virulent in a burn mouse model of P. aeruginosa infection; and strain CP204 was isolated from a cystic fibrosis patient in 1989 at the National Jewish Medical and Research Center, Denver, CO, USA. All strains have been maintained at −80 °C in the laboratory of Michael Vasil, University of Colorado, School of Medicine.
(§2) The minimal inhibitory concentration (MIC) is defined as the lowest peptide concentration that inhibited bacterial growth. MICs were measured by a standard microtiter dilution method in Mueller Hinton (MH) medium. Briefly, cells were grown overnight at 37 °C in MH broth and were diluted in the same medium. […] The plates were incubated at 37 °C for 24 h, and the MICs were determined.

[3] = test system: P. aeruginosa strain PA14; settings: Mueller-Hinton medium, 37 °C, 24 h, 5 × 10^5 CFU/mL; three sets of determinations
Excerpt: as §1, §2

P. aeruginosa strain WR5 = settings: source burn patient; Mueller-Hinton medium, 37 °C, 24 h, 5 × 10^5 CFU/mL; three sets of determinations
Excerpt: as §1, §2

[4] = test system: P. aeruginosa strain CP204; settings: source cystic fibrosis patient; Mueller-Hinton medium, 37 °C, 24 h, 5 × 10^5 CFU/mL; three sets of determinations
Excerpt: as §1, §2

[5] = test system: P. aeruginosa strain PAO1; settings: source human wound; Mueller-Hinton medium, 37 °C, 24 h, 5 × 10^5 CFU/mL; three sets of determinations
Excerpt: as §1, §2

P. aeruginosa strain M2 = settings: source burn mouse model; Mueller-Hinton medium, 37 °C, 24 h, 5 × 10^5 CFU/mL; three sets of determinations
Excerpt: as §1, §2

[6] = test system: Pseudomonas aeruginosa (6 different isolates); settings: geometric mean of the MIC values from 6 different isolates of P. aeruginosa; Table 3B
Excerpt: as §1, §2
Geometric mean of MIC values was calculated to provide an overall view of antimicrobial activity of different analogs.

[7] = test system: Acinetobacter baumannii (11 different isolates); format: cell-based; settings: geometric mean of the MIC values from 11 different isolates of A. baumannii; Table 3A
Excerpt: (§3) All the A. baumannii strains used in this study were (1) obtained from the collection of Dr. Anthony A. Campagnari at the University of Buffalo and originally isolated from different patients and organs/tissues (strain 649, blood; strain 689, groin; strain 759, gluteus; strain 821, urine; strain 884, axilla; strain 899, perineum; strain 964, throat; strain 985, pleural fluid and strain 1012, sputum); (2) were purchased from the American Type Culture Collection (ATCC, Manassas, VA, USA) (strain ATCC 17978, fatal meningitis; and strain ATCC 19606, urine).
(§4) The minimal inhibitory concentration (MIC) is defined as the lowest peptide concentration that inhibited bacterial growth. MICs were measured by a standard microtiter dilution method in Mueller Hinton (MH) medium. Briefly, cells were grown overnight at 37 °C in MH broth and were diluted in the same medium. Serial dilutions of the peptides were added to the microtiter plates in a volume of 50 µL, followed by the addition of 50 µL of bacteria to give a final inoculum of 5 × 10^5 colony-forming units (CFU)/mL. The plates were incubated at 37 °C for 24 h, and the MICs were determined.
Antibacterial activities against six strains of P. aeruginosa and eleven strains of A. baumannii are compared in Table 3. Geometric mean of MIC values was calculated to provide an overall view of antimicrobial activity of different analogs. It is clear that our peptides were effective in killing the microorganisms tested. Compared to a dramatic reduction in hemolytic activity, antibacterial activity of D-piscidin 1 and D-dermaseptin S4 analogs against eleven strains of A. baumannii maintained the same level (within 2-fold) upon the substitution of “specificity determinant(s)” (Table 3).

A. baumannii strain 985 = format: cell-based, Acinetobacter baumannii; settings: source pleural fluid; Mueller-Hinton medium, 37 °C, 24 h, 5 × 10^5 CFU/mL; three sets of determinations
Excerpt: as §3, §4

A. baumannii strain 899 = format: cell-based, Acinetobacter baumannii; settings: source perineum; Mueller-Hinton medium, 37 °C, 24 h, 5 × 10^5 CFU/mL; three sets of determinations
Excerpt: as §3, §4

A. baumannii strain 689 = format: cell-based, Acinetobacter baumannii; settings: source groin; Mueller-Hinton medium, 37 °C, 24 h, 5 × 10^5 CFU/mL; three sets of determinations
Excerpt: as §3, §4

[8] = test system: A. baumannii strain ATCC 17978; format: cell-based, Acinetobacter baumannii; settings: ATCC 17978, 24 h
Excerpt: as §3, §4

A. baumannii strain 1012 = format: cell-based, Acinetobacter baumannii; settings: source sputum; Mueller-Hinton medium, 37 °C, 24 h, 5 × 10^5 CFU/mL; three sets of determinations
Excerpt: as §3, §4

A. baumannii strain 964 = format: cell-based, Acinetobacter baumannii; settings: source throat; Mueller-Hinton medium, 37 °C, 24 h, 5 × 10^5 CFU/mL; three sets of determinations
Excerpt: as §3, §4

A. baumannii strain 821 = test: MIC, microtiter dilution; format: cell-based, Acinetobacter baumannii; settings: source urine; Mueller-Hinton medium, 37 °C, 24 h, 5 × 10^5 CFU/mL; three sets of determinations
Excerpt: as §3, §4

A. baumannii strain 649 = test: MIC, microtiter dilution; format: cell-based, Acinetobacter baumannii; settings: source blood; Mueller-Hinton medium, 37 °C, 24 h, 5 × 10^5 CFU/mL; three sets of determinations
Excerpt: as §3, §4

[9] = test system: A. baumannii strain ATCC 19606; test: MIC, microtiter dilution; format: cell-based, Acinetobacter baumannii; settings: source urine; Mueller-Hinton medium, 37 °C, 24 h, 5 × 10^5 CFU/mL; three sets of determinations
Excerpt: as §3, §4

A. baumannii strain 759 = test: MIC, microtiter dilution; format: cell-based, Acinetobacter baumannii; settings: source gluteus; Mueller-Hinton medium, 37 °C, 24 h, 5 × 10^5 CFU/mL; three sets of determinations
Excerpt: as §3, §4

A. baumannii strain 884 = test: MIC, microtiter dilution; format: cell-based, Acinetobacter baumannii; settings: source axilla; Mueller-Hinton medium, 37 °C, 24 h, 5 × 10^5 CFU/mL; three sets of determinations
Excerpt: as §3, §4

SMILES | MIC PAK (P. aeruginosa strain PAK) [µM] | MIC PA14 [3] [µM] | MIC WR5 (P. aeruginosa strain WR5) [µM] | MIC CP204 [4] [µM] | MIC PAO1 [5] [µM] | MIC M2 (P. aeruginosa strain M2) [µM] | MIC GM [6] [µM] | Hemolytic activity HC50 (human erythrocytes [1]) [µM] | MIC GM [7] [µM] | MIC 985 (A. baumannii strain 985) [µM] | MIC 899 (A. baumannii strain 899) [µM] | MIC 689 (A. baumannii strain 689) [µM] | MIC ATCC17978 [8] [µM] | MIC 1012 (A. baumannii strain 1012) [µM] | MIC 964 (A. baumannii strain 964) [µM] | MIC 821 (A. baumannii strain 821) [µM] | MIC 649 (A. baumannii strain 649) [µM] | MIC ATCC19606 [9] [µM] | MIC 759 (A. baumannii strain 759) [µM] | MIC 884 (A. baumannii strain 884) [µM] | other results
CC[C@@H](C)[C@@H](NC(=O)[C@H]1CCCN1C(=O)[C@@H](CCCNC(=N)N)NC(=O)[C@@H](Cc1ccccc1)NC(=O)[C@H](NC(=O)[C@@H](Cc1c[nH]cn1)NC(=O)[C@@H](Cc1c[nH]cn1)NC(=O)[C@@H](Cc1ccccc1)NC(=O)[C@H](N)Cc1ccccc1)[C@H](C)CC)C(=O)N[C@@H](C(=O)N[C@H](Cc1c[nH]cn1)C(=O)N[C@@H](C(=O)NCC(=O)N[C@H](CCCCN)C(=O)N[C@@H](C(=O)N[C@@H](C(=O)N[C@H](Cc1c[nH]cn1)C(=O)N[C@H](CCCNC(=N)N)C(=O)N[C@H](CC(C)C)C(=O)N[C@@H](C(=O)N[C@@H](C(=O)NCC(N)=O)[C@H](C)O)C(C)C)[C@H](C)CC)[C@H](C)O)C(C)C)C(C)C [D-Piscidin 1 G8P] (H-[dF][dF][dH][dH][dI][dF][dR][dP][dI][dV][dH][dV]G[dK][dT][dI][dH][dR][dL][dV][dT]G-NH2) |  |  |  |  |  |  |  |  |  |  |  |  |  |  |  |  |  |  |  |  | Hemolytic activity HC50, 18 hours (Figure 8 comparison) (human erythrocytes [1]; 18 hours at 37 °C, human red blood cells, Figure 8, 100% control 0.1% Triton-X 100): 8 µM; Hemolytic activity HC50, 1 hour (human erythrocytes [2]): 55 µM
CC[C@@H](C)[C@@H](NC(=O)CNC(=O)[C@@H](CCCNC(=N)N)NC(=O)[C@@H](Cc1ccccc1)NC(=O)[C@H](NC(=O)[C@@H](Cc1c[nH]cn1)NC(=O)[C@@H](Cc1c[nH]cn1)NC(=O)[C@@H](Cc1ccccc1)NC(=O)[C@H](N)Cc1ccccc1)[C@H](C)CC)C(=O)N[C@@H](C(=O)N[C@H](Cc1c[nH]cn1)C(=O)N[C@H](CCCCN)C(=O)NCC(=O)N[C@H](CCCCN)C(=O)N[C@@H](C(=O)N[C@@H](C(=O)N[C@H](Cc1c[nH]cn1)C(=O)N[C@H](CCCNC(=N)N)C(=O)N[C@H](CC(C)C)C(=O)N[C@@H](C(=O)N[C@@H](C(=O)NCC(N)=O)[C@H](C)O)C(C)C)[C@H](C)CC)[C@H](C)O)C(C)C [D-Piscidin 1 V12K] (H-[dF][dF][dH][dH][dI][dF][dR]G[dI][dV][dH][dK]G[dK][dT][dI][dH][dR][dL][dV][dT]G-NH2) | 6.0 (≈ 15.6 µg/mL) | 24.0 (≈ 62.4 µg/mL) | 12.0 (≈ 31.2 µg/mL) | 24.0 (≈ 62.4 µg/mL) | 24.0 (≈ 62.4 µg/mL) | 24.0 (≈ 62.4 µg/mL) | 17.0 (≈ 44.2 µg/mL) | 35 | 2.8 (≈ 7.28 µg/mL) | 1.5 (≈ 3.9 µg/mL) | 3.0 (≈ 7.8 µg/mL) | 3.0 (≈ 7.8 µg/mL) | 3.0 (≈ 7.8 µg/mL) | 3.0 (≈ 7.8 µg/mL) | 3.0 (≈ 7.8 µg/mL) | 3.0 (≈ 7.8 µg/mL) | 3.0 (≈ 7.8 µg/mL) | 3.0 (≈ 7.8 µg/mL) | 3.0 (≈ 7.8 µg/mL) | 3.0 (≈ 7.8 µg/mL) | 
CC[C@@H](C)[C@@H](NC(=O)CNC(=O)[C@@H](CCCNC(=N)N)NC(=O)[C@@H](Cc1ccccc1)NC(=O)[C@H](NC(=O)[C@@H](Cc1c[nH]cn1)NC(=O)[C@@H](Cc1c[nH]cn1)NC(=O)[C@@H](Cc1ccccc1)NC(=O)[C@H](N)Cc1ccccc1)[C@H](C)CC)C(=O)N[C@@H](C(=O)N[C@H](Cc1c[nH]cn1)C(=O)N[C@@H](C(=O)NCC(=O)N[C@H](CCCCN)C(=O)N[C@@H](C(=O)N[C@@H](C(=O)N[C@H](Cc1c[nH]cn1)C(=O)N[C@H](CCCNC(=N)N)C(=O)N[C@H](CC(C)C)C(=O)N[C@@H](C(=O)N[C@@H](C(=O)NCC(N)=O)[C@H](C)O)C(C)C)[C@H](C)CC)[C@H](C)O)C(C)C)C(C)C [D-Piscidin 1] (H-[dF][dF][dH][dH][dI][dF][dR]G[dI][dV][dH][dV]G[dK][dT][dI][dH][dR][dL][dV][dT]G-NH2) | 12.2 (≈ 31.4 µg/mL) | 24.3 (≈ 62.5 µg/mL) | 12.2 (≈ 31.4 µg/mL) | 24.3 (≈ 62.5 µg/mL) | 24.3 (≈ 62.5 µg/mL) | 24.3 (≈ 62.5 µg/mL) | 19.3 (≈ 49.6 µg/mL) | 1.8 | 2.8 (≈ 7.2 µg/mL) | 1.5 (≈ 3.86 µg/mL) | 3.0 (≈ 7.71 µg/mL) | 1.5 (≈ 3.86 µg/mL) | 3.0 (≈ 7.71 µg/mL) | 6.1 (≈ 15.7 µg/mL) | 3.0 (≈ 7.71 µg/mL) | 3.0 (≈ 7.71 µg/mL) | 3.0 (≈ 7.71 µg/mL) | 3.0 (≈ 7.71 µg/mL) | 3.0 (≈ 7.71 µg/mL) | 3.0 (≈ 7.71 µg/mL) | Hemolytic activity Fold improvement in HC50 (human erythrocytes [1]): 1.0 fold
